One assay concerns human microglia. Briefly: Reduction in C26:0 LPC in human microglia in vitro. The conditions noted are these: half maximal reduction in C26:0 LPC. The assay is classed as cell-based. As to the method: (§1) Lysophosphatidylcholine (LPC) VLCFA were generated from straight chain VLCFA (SC-VLCFA) and were used clinically for newborn screening (Vogel et al., Mol. Genet. Metab. (2015) 114(4):599-603). In vitro efficacy studies were performed by measuring LPC VLCFA level (measured as LPC synthesis) in various cell lines, specifically in 1) human HEK cells, 2) patient derived cells, and 3) human microglia, which are disease relevant CNS cells. Compound 87's dose response relationships and IC50 values were measured in HEK cells, primary patient fibroblasts, immortalized patient lymphocytes, and a human microglial cell line. […]
Immortalized human microglia (Applied Biological Materials (ABM); catalog #T0251; Richmond BC, Canada) were grown and sub-cultured following the subculturing protocols from ABM except DMEM (high glucose, pyruvate; LifeTech Cat. No. 11995) was used instead of Prigrow III medium and standard tissue culture grade flasks and plates were used. […] An equal volume of media was used to neutralize the detachment media and the cells were collected and counted. […]
Upon the completion of the compound treatment, the media (with compound treatment) was aspirated from the well. […] The plate was sealed with a plate tape and put at −80° C. for further VLCFA extraction and VLCFA quantitation on LC-MS, as described below.
VLCFA Extraction and Quantitation on LCMS: […]

Another assay deals with ALD patient fibroblasts. Briefly: Reduction in C26:0 LPC in ALD patient fibroblasts in vitro. The conditions noted are these: Patient Fibroblast (CALD 1), half maximal reduction in C26:0 LPC, each number a separate measurement. The assay is classed as cell-based, human. The method, then: as §1
Primary patient fibroblasts were obtained from Coriell Institute for Medical Research. […] The plate was sealed with a plate tape and put at −80° C. for further VLCFA extraction and VLCFA quantitation on LC-MS, as described below.
VLCFA Extraction and Quantitation on LCMS:
Treated cells were transferred to a polypropylene v-bottom plate and then centrifuged at 1690×g for 10 minutes. […] The plates were then sealed with pierceable capmats (Micronic MP53017) and stored at −20° C. until further analyzed using UPHLC/Mass Spectrometry Readout, as described above in example 2.1, which measured the integration of ^13C into lysophosphatidylcholine (LPC) indicated fatty acid elongation. […]

Assay [1] concerns healthy human fibroblasts. As to the kind of experiment: Reduction in C26:0 LPC in healthy human fibroblasts in vitro. The assay is classed as cell-based. The conditions noted are these: Healthy 2 Fibroblast, half maximal reduction in C26:0 LPC, each number a separate measurement.

The results in this text go back to US20180251431A1 (VERTEX PHARMACEUTICALS INCORPORATED, priority 2016, published 2018).

The term IC50 denotes the concentration that inhibits the measured activity by half.

As to `O=C(Nc1ccn(-c2ccnc(F)c2)n1)C1(c2ccccc2F)CC1` [Compound 87, 1-(2-fluorophenyl)-N-[1-(2-fluoro-4-pyridyl)pyrazol-3-yl]cyclopropanecarboxamide], the IC50 with human microglia worked out at 11 nM; with ALD patient fibroblasts (Homo sapiens, Fibroblast), 17 nM; in the assay with ALD patient fibroblasts, 23 nM; in assay [1], 6 nM; in assay [1] (Homo sapiens, Fibroblast), 9 nM.
